According to the supplement of paper PMC11061612:

Key:
Assay in all cases: combination Emax (second highest fraction inhibited in the dose matrix, 72 h); higher = more inhibition; extreme values may be limits of the assay
[1] = tested on: NCI-H1623 (Lung Adenocarcinoma)
How it was run: (§1)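 Cell lines grown in DMEM/F12 or RPMI with 10% FBS were plated in 1536-well plates and held 24 hours at 37°C, 5% CO2 before 72 hours of exposure to two-drug dose matrices, with DMSO typically at 0.2%. CellTiter-Glo 2.0 luminescence gave viability, which was converted to inhibition. Vehicle wells were set to 0 and blank wells to 1. Combination Emax is the second-highest inhibition in the matrix, and Bliss excess is the observed combination effect minus the expected EA + EB − EA·EB, where EA and EB are the single-agent effects.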

[2] = tested on: SK-MM-2 (Plasma Cell Myeloma)
How it was run: as §1

[3] = tested on: HSC-3 (Oral Cavity Carcinoma)
How it was run: as §1

HuO-3N1 (Osteosarcoma) = tested on: HuO-3N1 (Osteosarcoma)
How it was run: as §1

[4] = tested on: SNU-175 (Colorectal Carcinoma)
How it was run: as §1

KYM-1 (Rhabdomyosarcoma) = tested on: KYM-1 (Rhabdomyosarcoma)
How it was run: as §1

[5] = tested on: COLO-684 (Endometrial Carcinoma)
How it was run: as §1

[6] = tested on: EB-3 (Burkitt's Lymphoma)
How it was run: as §1

ES-2 (Ovarian Carcinoma) = tested on: ES-2 (Ovarian Carcinoma)
How it was run: as §1

[7] = tested on: AsPC-1 (Pancreatic Carcinoma)
How it was run: as §1

[8] = tested on: NCI-H810 (Non-Small Cell Lung Carcinoma)
How it was run: as §1

[9] = tested on: RPMI-8866 (Chronic Myelogenous Leukemia)
How it was run: as §1

[10] = tested on: SW684 (Other Solid Carcinomas)
How it was run: as §1

[11] = tested on: NCI-H1563 (Lung Adenocarcinoma)
How it was run: as §1

[12] = tested on: OVTOKO (Ovarian Carcinoma)
How it was run: as §1

[13] = tested on: KYSE-70 (Esophageal Squamous Cell Carcinoma)
How it was run: as §1

[14] = tested on: PANC-02-03 (Pancreatic Carcinoma)
How it was run: as §1

[15] = tested on: SJRH30 (Rhabdomyosarcoma)
How it was run: as §1

[16] = tested on: RERF-LC-KJ (Lung Adenocarcinoma)
How it was run: as §1

SMILES | combination Emax [1] | combination Emax [2] | combination Emax [3] | combination Emax (HuO-3N1 (Osteosarcoma)) | combination Emax [4] | combination Emax (KYM-1 (Rhabdomyosarcoma)) | combination Emax [5] | combination Emax [6] | combination Emax (ES-2 (Ovarian Carcinoma)) | combination Emax [7] | combination Emax [8] | combination Emax [9] | combination Emax [10] | combination Emax [11] | combination Emax [12] | combination Emax [13] | combination Emax [14] | combination Emax [15] | combination Emax [16]
CS(=O)(=O)CCNCc1ccc(-c2ccc3ncnc(Nc4ccc(OCc5cccc(F)c5)c(Cl)c4)c3c2)o1 [Lapatinib] + C[C@@H](Oc1cc(-c2cnn(C3CCNCC3)c2)cnc1N)c1c(Cl)ccc(F)c1Cl [Crizotinib] (first compound max 10 µM, 7x7, partner max 10 µM) | 0.987 | 0.43 | 1 | 0.876 | 0.917 | 0.971 | 0.78 | 0.909 | 0.921 | 0.345 | 0.412 | 0.884 | 0.523 | 0.776 | 0.902 | 0.585 | 0.735 | 0.955 | 0.81
CC(=O)c1c(C)c2cnc(Nc3ccc(N4CCNCC4)cn3)nc2n(C2CCCC2)c1=O [Palbociclib] + CC1(C)CCC(CN2CCN(c3ccc(C(=O)NS(=O)(=O)c4ccc(NCC5CCOCC5)c([N+](=O)[O-])c4)c(Oc4cnc5[nH]ccc5c4)c3)CC2)=C(c2ccc(Cl)cc2)C1 [Venetoclax] (first compound max 10 µM, 7x7, partner max 1 µM) | 0.248 | 1 | 0.359 | 0.146 | 0.562 | 0.863 | 0.193 | 0.329 | 0.501 | 0.104 | 0.0599 | 0.754 | 0.147 | 0.313 | 0.336 | 0.11 | 0.148 | 0.0832 | 0.117
CC(=O)c1c(C)c2cnc(Nc3ccc(N4CCNCC4)cn3)nc2n(C2CCCC2)c1=O [Palbociclib] + Cc1c2c(nn1C)CSCc1cc(n(C)n1)CSc1cc(c3ccccc3c1)OCCCc1c(C(=O)O)n(C)c3c-2c(Cl)ccc13 [AZD5991] (first compound max 10 µM, 7x7, partner max 1 µM) | 0.818 | 0.259 | 0.613 | 0.508 | 0.652 | 0.947 | 0.321 | 0.435 | 0.619 | 0.199 | 0.224 | 0.725 | 0.335 | 0.609 | 0.48 | 0.157 | 0.182 | 0.786 | 0.288
CC(=O)c1c(C)c2cnc(Nc3ccc(N4CCNCC4)cn3)nc2n(C2CCCC2)c1=O [Palbociclib] + Cn1cnc2c(F)c(Nc3ccc(Br)cc3Cl)c(C(=O)NOCCO)cc21 [Selumetinib] (first compound max 10 µM, 7x7, partner max 10 µM) | 0.52 | 0.138 | 0.521 | 0.154 | 0.549 | 0.93 | 0.153 | 0.374 | 0.569 | 0.386 | 0.0848 | 0.806 | 0.292 | 0.261 | 0.259 | 0.182 | 0.475 | 0.143 | 0.197
C[C@@H](c1ccc2nccn2c1)n1nnc2ncc(-c3cnn(C)c3)nc21 [Savolitinib] + CC1(C)CCC(CN2CCN(c3ccc(C(=O)NS(=O)(=O)c4ccc(NCC5CCOCC5)c([N+](=O)[O-])c4)c(Oc4cnc5[nH]ccc5c4)c3)CC2)=C(c2ccc(Cl)cc2)C1 [Venetoclax] (first compound max 1 µM, 7x7, partner max 1 µM) | 0.173 | 1 | 0.107 | 0.181 | 0.119 | 0.185 | 0.174 | 0.253 | 0.137 | 0.107 | 0.194 | 0.0738 | 0.231 | 0.18 | 0.199 | 0.095 | 0.157 | 0.126 | 0.15
C[C@@H](c1ccc2nccn2c1)n1nnc2ncc(-c3cnn(C)c3)nc21 [Savolitinib] + Cc1c2c(nn1C)CSCc1cc(n(C)n1)CSc1cc(c3ccccc3c1)OCCCc1c(C(=O)O)n(C)c3c-2c(Cl)ccc13 [AZD5991] (first compound max 1 µM, 7x7, partner max 1 µM) | 0.802 | 0.131 | 0.206 | 0.35 | 0.426 | 0.43 | 0.174 | 0.361 | 0.176 | 0.184 | 0.255 | 0.108 | 0.161 | 0.465 | 0.199 | 0.107 | 0.13 | 0.464 | 0.301
Cn1cnc2c(F)c(Nc3ccc(Br)cc3Cl)c(C(=O)NOCCO)cc21 [Selumetinib] + C=CCn1c(=O)c2cnc(Nc3ccc(N4CCN(C)CC4)cc3)nc2n1-c1cccc(C(C)(C)O)n1 [AZD1775] (first compound max 10 µM, partner max 1 µM) | 0.607 | 0.236 | 0.601 | 0.259 | 0.718 | 0.591 | 0.708 | 0.703 | 0.66 | 0.437 | 0.542 | 0.956 | 0.152 | 0.303 | 0.452 | 0.328 | 0.572 | 0.846 | 0.401
